In patent US11173162B2, “Bicyclic heterocycles as FGFR4 inhibitors” (Incyte Corporation, priority 2015, dated 2021) one finds FGFR1/FGFR3 and FGFR4/FGFR3 data, which are given here for 24 compounds.

The structures appear in SMILES notation.

The experiment deals with FGFR3 enzyme. The experiment in a line: FGFR Enzymatic Assay (FRET peptide phosphorylation), FGFR3. The class given is biochemical. As to conditions: IC50 ratio showing FGFR3 selectivity; Table 2A, pre-incubated for 4 hours. How it is done: The inhibitor potency of the exemplified compounds was measured in an enzyme assay that measures peptide phosphorylation using FRET measurements to detect product formation. Inhibitors were serially diluted in DMSO and a volume of 0.5 μL was transferred to the wells of a 384-well plate.
GraphPad prism3 was used to analyze the data.
In the case of `COc1cc(OC)c(F)c(N2Cc3cnc(-c4cn(CC#N)nc4C)cc3C3(CC3)C2=O)c1F` [Example 153, 2-(4-(2′-(2,6-difluoro-3,5-dimethoxyphenyl)-3′-oxo-2′,3′-dihydro-1′H-spiro[cyclopropane-1,4′-[2,7]naphthyridine]-6′-yl)-3-methyl-1H-pyrazol-1-yl)acetonitrile], the FGFR1/FGFR3 is over 5 and the FGFR4/FGFR3 is listed as over 3. Taken in the same sequence, the figures for `COc1cc(OC)c(F)c(N2Cc3cnc(-c4cn(C)nc4C)cc3N(CC3CCOCC3)C2=O)c1F` [Example 37, 3-(2,6-difluoro-3,5-dimethoxyphenyl)-7-(1,3-dimethyl-1H-pyrazol-4-yl)-1-((tetrahydro-2H-pyran-4-yl)methyl)-3,4-dihydropyrido[4,3-d]pyrimidin-2(1H)-one] were over 1 and over 10. For `COc1cc(OC)c(F)c(N2Cc3cnc(-c4cnn(C)c4)cc3C3(CC3)C2=O)c1F` [Example 186, 2′-(2,6-difluoro-3,5-dimethoxyphenyl)-6′-(1-methyl-1H-pyrazol-4-yl)-1′,2′-dihydro-3′H-spiro[cyclopropane-1,4′-[2,7]naphthyridin]-3′-one], the FGFR1/FGFR3 is recorded as over 5 and the FGFR4/FGFR3 is listed as over 5. With `COc1cc(OC)c(F)c(N2Cc3cnc(-c4cn(C)nc4C)cc3N(c3ncccn3)C2=O)c1F` [Example 105, 3-(2,6-difluoro-3,5-dimethoxyphenyl)-7-(1,3-dimethyl-1H-pyrazol-4-yl)-1-(pyrimidin-2-yl)-3,4-dihydropyrido[4,3-d]pyrimidin-2(1H)-one], the FGFR1/FGFR3 is recorded as over 3 and the FGFR4/FGFR3 was over 5. In the same order, the values of `COc1cccc(N2C(=O)N(c3c(F)c(OC)cc(OC)c3F)Cc3cnc(-c4cn(C)nc4C)cc32)c1` [Example 109, 3-(2,6-difluoro-3,5-dimethoxyphenyl)-7-(1,3-dimethyl-1H-pyrazol-4-yl)-1-(3-methoxyphenyl)-3,4-dihydropyrido[4,3-d]pyrimidin-2(1H)-one] are over 3 and over 10. `COc1cc(OC)c(F)c(N2Cc3cnc(-c4cn(C)nc4C)cc3N(c3ccc4ccncc4c3)C2=O)c1F` [Example 63, 3-(2,6-difluoro-3,5-dimethoxyphenyl)-7-(1,3-dimethyl-1H-pyrazol-4-yl)-1-(isoquinolin-7-yl)-3,4-dihydropyrido[4,3-d]pyrimidin-2(1H)-one]: the FGFR1/FGFR3 is reported as over 10 and the FGFR4/FGFR3 was over 5. In the same order, the values of `COc1cc(OC)c(F)c(N2Cc3cnc(-c4cn(C)nc4C)cc3N(c3ccc(F)c(F)c3)C2=O)c1F` [Example 102, 3-(2,6-difluoro-3,5-dimethoxyphenyl)-1-(3,4-difluorophenyl)-7-(1,3-dimethyl-1H-pyrazol-4-yl)-3,4-dihydropyrido[4,3-d]pyrimidin-2(1H)-one] are over 3 and over 10.

Turning to `CCn1cc(N2C(=O)N(c3c(F)c(OC)cc(OC)c3F)Cc3cnc(-c4cn(C)nc4C)cc32)cn1` [Example 131, 3-(2,6-difluoro-3,5-dimethoxyphenyl)-7-(1,3-dimethyl-1H-pyrazol-4-yl)-1-(1-ethyl-1H-pyrazol-4-yl)-3,4-dihydropyrido[4,3-d]pyrimidin-2(1H)-one], the FGFR1/FGFR3 was over 3 and the FGFR4/FGFR3 was over 10. `COc1cc(OC)c(F)c(N2Cc3cnc(-c4cn(C)nc4C)cc3N(c3cncc(C)n3)C2=O)c1F` [Example 87, 3-(2,6-difluoro-3,5-dimethoxyphenyl)-7-(1,3-dimethyl-1H-pyrazol-4-yl)-1-(6-methylpyrazin-2-yl)-3,4-dihydropyrido[4,3-d]pyrimidin-2(1H)-one]: the FGFR1/FGFR3 is given as over 5 and the FGFR4/FGFR3 is over 10.

On to `COc1cc(OC)c(F)c(N2Cc3cnc(-c4cn(C)nc4C)cc3N(Cc3ccccn3)C2=O)c1F` [Example 94, 3-(2,6-difluoro-3,5-dimethoxyphenyl)-7-(1,3-dimethyl-1H-pyrazol-4-yl)-1-(pyridin-2-ylmethyl)-3,4-dihydropyrido[4,3-d]pyrimidin-2(1H)-one], for which the FGFR1/FGFR3 was over 5 and the FGFR4/FGFR3 is over 10. In the same order, the values of `COc1cc(OC)c(F)c(N2Cc3cnc(-c4cn(C)nc4C)cc3N(Cc3ccncc3)C2=O)c1F` [Example 69, 3-(2,6-difluoro-3,5-dimethoxyphenyl)-7-(1,3-dimethyl-1H-pyrazol-4-yl)-1-(pyridin-4-ylmethyl)-3,4-dihydropyrido[4,3-d]pyrimidin-2(1H)-one] are over 5 and over 5. In the same order, the values of `COc1cc(OC)c(F)c(N2Cc3cnc(-c4cn(C)nc4C)cc3N(c3cc(F)cc(F)c3)C2=O)c1F` [Example 103, 3-(2,6-difluoro-3,5-dimethoxyphenyl)-1-(3,5-difluorophenyl)-7-(1,3-dimethyl-1H-pyrazol-4-yl)-3,4-dihydropyrido[4,3-d]pyrimidin-2(1H)-one] are over 3 and over 5. On to `COc1cc(OC)c(F)c(N2Cc3cnc(-c4cnn(C5(CC#N)CN(C(C)=O)C5)c4)cc3C3(CC3)C2=O)c1F` [Example 56, 2-(1-acetyl-3-(4-(2′-(2,6-difluoro-3,5-dimethoxyphenyl)-3′-oxo-2′,3′-dihydro-1′H-spiro[cyclopropane-1,4′-[2,7]naphthyridine]-6′-yl)-1H-pyrazol-1-yl)azetidin-3-yl)acetonitrile], for which the FGFR1/FGFR3 is over 5 and the FGFR4/FGFR3 is listed as over 1. Taken in the same sequence, the figures for `COc1cc(OC)c(F)c(N2Cc3cnc(-c4cn(C)nc4C)cc3N(c3cnccn3)C2=O)c1F` [Example 70, 3-(2,6-difluoro-3,5-dimethoxyphenyl)-7-(1,3-dimethyl-1H-pyrazol-4-yl)-1-(pyrazin-2-yl)-3,4-dihydropyrido[4,3-d]pyrimidin-2(1H)-one] were over 5 and over 5. Consider `CCc1nnc(CN2C(=O)N(c3c(F)c(OC)cc(OC)c3F)Cc3cnc(-c4cn(C)nc4C)cc32)o1` [Example 67, 3-(2,6-difluoro-3,5-dimethoxyphenyl)-7-(1,3-dimethyl-1H-pyrazol-4-yl)-1-((5-ethyl-1,3,4-oxadiazol-2-yl)methyl)-3,4-dihydropyrido[4,3-d]pyrimidin-2(1H)-one], for which the FGFR1/FGFR3 is given as over 5 and the FGFR4/FGFR3 was over 10.

With `COc1cc(OC)c(F)c(N2Cc3cnc(-c4cn(C)nc4C)cc3N(Cc3cnccn3)C2=O)c1F` [Example 85, 3-(2,6-difluoro-3,5-dimethoxyphenyl)-7-(1,3-dimethyl-1H-pyrazol-4-yl)-1-(pyrazin-2-ylmethyl)-3,4-dihydropyrido[4,3-d]pyrimidin-2(1H)-one], the FGFR1/FGFR3 is reported as over 5 and the FGFR4/FGFR3 was over 10. Taken in the same sequence, the figures for `COc1cc(OC)c(F)c(N2Cc3cnc(-c4cn(C)nc4C)cc3N(c3ccc(F)cc3)C2=O)c1F` [Example 40, 3-(2,6-difluoro-3,5-dimethoxyphenyl)-7-(1,3-dimethyl-1H-pyrazol-4-yl)-1-(4-fluorophenyl)-3,4-dihydropyrido[4,3-d]pyrimidin-2(1H)-one] were over 10 and over 10. On to `CCN1C(=O)N(c2c(F)c(OC)cc(OC)c2F)Cc2cnc(-c3cccnc3)cc21` [Example 23, 3-(2,6-difluoro-3,5-dimethoxyphenyl)-1-ethyl-7-(pyridin-3-yl)-3,4-dihydropyrido[4,3-d]pyrimidin-2(1H)-one], for which the FGFR1/FGFR3 is over 5. With `CNS(=O)(=O)c1cccc(N2C(=O)N(c3c(F)c(OC)cc(OC)c3F)Cc3cnc(-c4cn(C)nc4C)cc32)c1` [Example 111, 3-(3-(2,6-difluoro-3,5-dimethoxyphenyl)-7-(1,3-dimethyl-1H-pyrazol-4-yl)-2-oxo-3,4-dihydropyrido[4,3-d]pyrimidin-1(2H)-yl)-N-methylbenzenesulfonamide], the FGFR1/FGFR3 is over 3 and the FGFR4/FGFR3 is over 5. In the case of `COc1cc(OC)c(F)c(N2Cc3cnc(-c4cn(C)nc4C)cc3C3(CC3)C2=O)c1F` [Example 21, 2′-(2,6-difluoro-3,5-dimethoxyphenyl)-6′-(1,3-dimethyl-1H-pyrazol-4-yl)-1′,2′-dihydro-3′H-spiro[cyclopropane-1,4′-[2,7]naphthyridin]-3′-one], the FGFR1/FGFR3 was over 5.

In the case of `COc1cc(OC)c(F)c(N2Cc3cnc(-c4cn(C)nc4C)cc3N(c3ccc(CC#N)cc3)C2=O)c1F` [Example 97, 2-(4-(3-(2,6-difluoro-3,5-dimethoxyphenyl)-7-(1,3-dimethyl-1H-pyrazol-4-yl)-2-oxo-3,4-dihydropyrido[4,3-d]pyrimidin-1(2H)-yl)phenyl)acetonitrile], the FGFR1/FGFR3 is given as over 5 and the FGFR4/FGFR3 is over 10. Taken in the same sequence, the figures for `COc1cc(OC)c(F)c(N2Cc3cnc(-c4cn(C)nc4C)cc3N(Cc3cnn(C)c3)C2=O)c1F` [Example 72, 3-(2,6-difluoro-3,5-dimethoxyphenyl)-7-(1,3-dimethyl-1H-pyrazol-4-yl)-1-((1-methyl-1H-pyrazol-4-yl)methyl)-3,4-dihydropyrido[4,3-d]pyrimidin-2(1H)-one] were over 5 and over 10. For the compound `COc1cc(OC)c(F)c(N2Cc3cnc(-c4cnn(CCC5CCN(S(C)(=O)=O)CC5)c4)cc3C3(CC3)C2=O)c1F` [Example 148, 2′-(2,6-difluoro-3,5-dimethoxyphenyl)-6′-(1-(2-(1-(methylsulfonyl)piperidin-4-yl)ethyl)-1H-pyrazol-4-yl)-1′H-spiro[cyclopropane-1,4′-[2,7]naphthyridin]-3′(2′H)-one], the FGFR1/FGFR3 is listed as over 10 and the FGFR4/FGFR3 is over 3. As for `CCN1C(=O)N(c2c(F)c(OC)cc(OC)c2F)Cc2cnc(-c3cnn(C)c3)cc21` [Example 169, 3-(2,6-difluoro-3,5-dimethoxyphenyl)-1-ethyl-7-(1-methyl-1H-pyrazol-4-yl)-3,4-dihydropyrido[4,3-d]pyrimidin-2(1H)-one], the FGFR1/FGFR3 is on record as over 3 and the FGFR4/FGFR3 is on record as over 5.
